The source made the active and inactive calls. No rule for the calls is given here.
Experiments:
[1] = growth inhibition of vps1Δ apl2Δ yeast, dose response, post-Golgi transport modulator project, S. cerevisiae, background strain comparison (AID 788); conditions: S. cerevisiae vps1Δ apl2Δ growth inhibition, dose response; at 25 µM (top of the series)
[2] = tested on: S. cerevisiae vps1Δ apl2Δ growth inhibition, dose response; test: as above
[3] = tested on: S. cerevisiae wild-type background strain growth inhibition; test: as above; conditions: S. cerevisiae vps1Δ apl2Δ growth inhibition, dose response; measured here: wild-type background strain growth

| Compound | growth inhibition [1] | IC50 [2] | IC50 [3] [µM] |
| --- | --- | --- | --- |
| O=C(Nc1nnc(-c2cccs2)o1)c1cccc(C(F)(F)F)c1 | 36.6% (inactive) |  |  |
| Cc1ccc(CSc2nc3ccccc3cc2C=O)cc1 |  | 2.37 µM (inactive) | 2.1 |
| C=C(C)C1CC=C(CN2CC(C)OC(C)C2)CC1 (centres undefined) |  | 4.44 µM | > 10 |
| Cc1ccc(C(=O)OCn2ncc(Cl)c(Cl)c2=O)cc1 |  | 4.22 µM | 4.62 |
| CCOc1ccc(NC(=O)C/C(N)=N/O)cc1 |  | > 10 µM (inactive) | > 10 |
| O=C(COc1ccc(Cl)cc1)Nc1ccc(N2CCN(C(=O)c3ccco3)CC2)cc1 |  | > 10 µM (inactive) | > 10 |
| COc1cccc(NC(=O)C2CCCN2C(=O)OCc2ccccc2)c1 (centres undefined) |  | > 10 µM (inactive) | > 10 |
| CCc1ccc(C(=O)/C=C/c2ccc([N+](=O)[O-])o2)cc1 |  | 23.1 µM (inactive) | 20.7 |
| CCCn1c(SCc2cc(=O)oc3ccc4ccccc4c23)n[nH]c1=O |  | > 10 µM (inactive) | > 10 |
| CC(=O)NC1C(c2nc3ccccc3s2)=C(c2ccccc2)C(=O)N1c1ccc(C)cc1 (centres undefined) |  | 2.62 µM (inactive) | 1.92 |
| COc1ccc(/C=C2\SC(=S)N(NC(=O)c3csc4c3CCCC4)C2=O)cc1 |  | > 10 µM (inactive) | > 10 |
| O=S(=O)(NCC(c1cccnc1)N1CCN(c2ccccc2)CC1)c1cccs1 (centres undefined) |  | 23 µM | > 10 |
| CCOC(=O)c1ccc(NC(=O)c2ccc(CN3CCOCC3)cc2)cc1 |  | 24.9 µM | > 10 |
| O=C(OCn1ncc(Cl)c(Cl)c1=O)c1cccc(C(F)(F)F)c1 |  | 6 µM (inactive) | 3.51 |
| Cc1ccc(C)c(NS(=O)(=O)c2cc(C(=O)N3CCc4ccccc4C3)ccc2Cl)c1 |  | 8.09 µM (inactive) | 6.88 |
| FC(F)(F)COc1nc(N2CCCCC2)nc(N2CCNCC2)n1 |  | > 10 µM (inactive) | > 10 |
| N#CC1=C(N)NC(SCc2ccc(F)cc2)=C(C#N)C12CCCCC2 |  | 4.84 µM | 16.3 |
| CCOCCCNC(=O)C1CCN(C(=O)N(C)C)CC1 |  | > 10 µM (inactive) | > 10 |
| COC(=O)C1=CN(CCCN2CCCC2=O)C=C(C(=O)OC)C1c1ccccc1C(F)(F)F |  | > 10 µM (inactive) | > 10 |
| O=C1OCC2=C1C(c1ccc(F)cc1)Sc1ccccc1N2 (centres undefined) |  | 23.9 µM | > 10 |

Source: PubChem BioAssay AID788 (SRMLSC, 2007)
